Reference: patent US20200069772A1, “METHODS OF TREATING EARLY RHEUMATOID ARTHRITIS” (BRISTOL-MYERS SQUIBB COMPANY, priority 2014, published 2020)
Values joined by “and” are separate entries in the source; they are usually repeats but may differ in a detail not shown here. Equal entries are not always repeated.

Columns and labels:
patients with early RA [1] = test: AVERT trial: HAQ-DI response (≥0.3 points reduction from baseline); assay type: in vivo, human; settings: Month 12
patients with early RA [2] = test: AVERT phase 3b randomized active-controlled trial: signs and symptoms (DAS-defined remission, other remission and ACR measures); assay type: in vivo, human
Method: Patients receiving oral corticosteroids were required to be on a stable dose (≤10 mg/day for ≥4 weeks) at initiation and to maintain that dose until Month 12.
All patients received concomitant folic acid therapy.
Patients with DAS28 (CRP)≥3.2 were discontinued.
For the purpose of this study, DAS-defined remission was DAS28 (CRP)<2.6.
Exploratory endpoints included: Other remission rates (Simplified Disease Activity Index [SDAI; ≤3.3], Clinical Disease Activity Index [CDAI; ≤2.8] and Boolean remission [28-joint tender joint count ≤1 and 28-joint swollen joint count ≤1 and patient global assessment of disease activity [0-10 cm]≤1 and high-sensitivity CRP≤1 mg/dL]), American College of Rheumatology (ACR) responses and Major Clinical Response (ACR 70 response for 6 months at any time period) in each arm.
Co-primary endpoints were tested in hierarchical fashion. […] All patients who discontinued prior to completing the treatment or withdrawal period were imputed as non-responders for the Month 12 or 18 analyses.
Endpoints of Disease Activity Score (DAS)-defined remission, SDAI remission, CDAI remission, Boolean remission, ACR 20/50/70 response and Major Clinical Response over time were summarized using descriptive statistics (with 95% confidence intervals at each time point).
For each treatment arm, a post hoc analysis was performed of mean baseline characteristics for patients who achieved DAS-defined remission at only Month 12 and at both Months 12 and 18, and of the proportions of patients who achieved DAS-defined remission based on these characteristics. An analysis of the overall treatment effect in mean change from baseline in DAS28 (CRP) (including data up to Month 12 of the treatment period) was performed for each treatment arm. Overall treatment effect and treatment differences between the three arms were obtained using a longitudinal repeated measures model including fixed categorical effects of treatment, months, and prior corticosteroid use as well as the continuous fixed covariate of baseline value. An unstructured covariance matrix was used to represent the correlation of the repeated measures within each subject.

[3] = treatment period, compared subgroups not stated

**Q.** Which “HAQ-DI Response (≥0.3), proportion of patients” value (patients with early RA [1]) does the source give for `CN(Cc1cnc2nc(N)nc(N)c2n1)c1ccc(C(=O)N[C@@H](CCC(=O)O)C(=O)O)cc1` [MTX, methotrexate] here?
**A.** Its value is 44.0% and 51 (44.0) %.

**Q.** And the “proportion of patients in DAS-defined remission (DAS28 [CRP]<2.6) at Month 12” value (patients with early RA [2]; Month 12 of treatment period, patients with baseline DAS28 (CRP), discontinuations imputed as non-responders)?
**A.** Its value is 45.2%.

**Q.** What about the “proportion of patients in DAS-defined remission (DAS28 [CRP]<2.6) at both Months 12 and 18” value (patients with early RA [2]; after withdrawal of all RA therapy at Month 12, only patients with DAS28 (CRP) available at baseline) of the same compound?
**A.** The value was 7.8%.

**Q.** What about the “patients remaining in DAS-defined remission at Month 18” value (patients with early RA [2]; of the patients who entered the withdrawal period in DAS-defined remission at Month 12) of the same compound?
**A.** Its value is 16.9%.

**Q.** What about the “Proportion of Patients with DAS-defined Remission (DAS28 [CRP] < 2.6) at Both Months 12 and 18” value (patients with early RA [2]; post hoc subgroup: baseline DAS28 (CRP) >Median (5.4)) of the same compound?
**A.** The value was 3/55 (5.5) %.

**Q.** What about the “Proportion of Patients with DAS-defined Remission (DAS28 [CRP] < 2.6) at Both Months 12 and 18” value (patients with early RA [2]; post hoc subgroup: baseline DAS28 (CRP) Missing) of the same compound?
**A.** The value was 0/1 (0) %.

**Q.** And the “Proportion of Patients with DAS-defined Remission (DAS28 [CRP] < 2.6) at Both Months 12 and 18” value (patients with early RA [2]; post hoc subgroup: baseline DAS28 (CRP) ≤Median (5.4))?
**A.** The value was 6/60 (10.0) %.

**Q.** And the “Proportion of Patients with DAS-defined Remission (DAS28 [CRP] < 2.6) at Both Months 12 and 18” value (patients with early RA [2]; post hoc subgroup: baseline Erosion >Median (4.5))?
**A.** The value was 3/50 (6.0) %.

**Q.** And the “Proportion of Patients with DAS-defined Remission (DAS28 [CRP] < 2.6) at Both Months 12 and 18” value (patients with early RA [2]; post hoc subgroup: baseline Erosion >Q1 (1.5)-Q2 (4.5))?
**A.** Its value is 2/23 (8.7) %.

**Q.** And the “Proportion of Patients with DAS-defined Remission (DAS28 [CRP] < 2.6) at Both Months 12 and 18” value (patients with early RA [2]; post hoc subgroup: baseline Erosion >Q2 (4.5)-Q3 (8.5))?
**A.** Its value is 2/23 (8.7) %.

**Q.** What about the “Proportion of Patients with DAS-defined Remission (DAS28 [CRP] < 2.6) at Both Months 12 and 18” value (patients with early RA [2]; post hoc subgroup: baseline Erosion >Q3 (8.5)) of the same compound?
**A.** The value was 1/27 (3.7) %.

**Q.** And the “Proportion of Patients with DAS-defined Remission (DAS28 [CRP] < 2.6) at Both Months 12 and 18” value (patients with early RA [2]; post hoc subgroup: baseline Erosion Missing)?
**A.** The value was 2/13 (15.4) %.

**Q.** What about the “Proportion of Patients with DAS-defined Remission (DAS28 [CRP] < 2.6) at Both Months 12 and 18” value (patients with early RA [2]; post hoc subgroup: baseline Erosion ≤Median (4.5)) of the same compound?
**A.** The value was 4/53 (7.5) %.

**Q.** And the “Proportion of Patients with DAS-defined Remission (DAS28 [CRP] < 2.6) at Both Months 12 and 18” value (patients with early RA [2]; post hoc subgroup: baseline Erosion ≤Q1 (1.5))?
**A.** The value was 2/30 (6.7) %.

**Q.** And the “Proportion of Patients with DAS-defined Remission (DAS28 [CRP] < 2.6) at Both Months 12 and 18” value (patients with early RA [2]; post hoc subgroup: baseline HAQ-DI >Median (1.375))?
**A.** Its value is 5/49 (10.2) %.

**Q.** What about the “Proportion of Patients with DAS-defined Remission (DAS28 [CRP] < 2.6) at Both Months 12 and 18” value (patients with early RA [2]; post hoc subgroup: baseline HAQ-DI Missing) of the same compound?
**A.** Its value is 0/11 (0) %.

**Q.** And the “Proportion of Patients with DAS-defined Remission (DAS28 [CRP] < 2.6) at Both Months 12 and 18” value (patients with early RA [2]; post hoc subgroup: baseline HAQ-DI ≤Median (1.375))?
**A.** The value was 4/56 (7.1) %.

**Q.** And the “Proportion of Patients with DAS-defined Remission (DAS28 [CRP] < 2.6) at Both Months 12 and 18” value (patients with early RA [2]; post hoc subgroup: baseline Osteitis >Median (0.5))?
**A.** The value was 3/49 (6.1) %.

**Q.** And the “Proportion of Patients with DAS-defined Remission (DAS28 [CRP] < 2.6) at Both Months 12 and 18” value (patients with early RA [2]; post hoc subgroup: baseline Osteitis >Q1 (0)-Q2 (0.5))?
**A.** The value was 0/5 (0) %.

**Q.** What about the “Proportion of Patients with DAS-defined Remission (DAS28 [CRP] < 2.6) at Both Months 12 and 18” value (patients with early RA [2]; post hoc subgroup: baseline Osteitis >Q2 (0.5)-Q3 (5)) of the same compound?
**A.** The value was 2/26 (7.7) %.

**Q.** And the “Proportion of Patients with DAS-defined Remission (DAS28 [CRP] < 2.6) at Both Months 12 and 18” value (patients with early RA [2]; post hoc subgroup: baseline Osteitis >Q3 (5))?
**A.** The value was 1/23 (4.3) %.

**Q.** What about the “Proportion of Patients with DAS-defined Remission (DAS28 [CRP] < 2.6) at Both Months 12 and 18” value (patients with early RA [2]; post hoc subgroup: baseline Osteitis Missing) of the same compound?
**A.** The value was 2/13 (15.4) %.

**Q.** What about the “Proportion of Patients with DAS-defined Remission (DAS28 [CRP] < 2.6) at Both Months 12 and 18” value (patients with early RA [2]; post hoc subgroup: baseline Osteitis ≤Median (0.5)) of the same compound?
**A.** Its value is 4/54 (7.4) %.

**Q.** And the “Proportion of Patients with DAS-defined Remission (DAS28 [CRP] < 2.6) at Both Months 12 and 18” value (patients with early RA [2]; post hoc subgroup: baseline Osteitis ≤Q1 (0))?
**A.** Its value is 4/49 (8.2) %.

**Q.** And the “Proportion of Patients with DAS-defined Remission (DAS28 [CRP] < 2.6) at Both Months 12 and 18” value (patients with early RA [2]; post hoc subgroup: baseline Pain (100 mm VAS) >Median (62))?
**A.** The value was 2/45 (4.4) %.

**Q.** And the “Proportion of Patients with DAS-defined Remission (DAS28 [CRP] < 2.6) at Both Months 12 and 18” value (patients with early RA [2]; post hoc subgroup: baseline Pain (100 mm VAS) Missing)?
**A.** The value was 0/11 (0.0) %.

**Q.** What about the “Proportion of Patients with DAS-defined Remission (DAS28 [CRP] < 2.6) at Both Months 12 and 18” value (patients with early RA [2]; post hoc subgroup: baseline Pain (100 mm VAS) ≤Median (62)) of the same compound?
**A.** The value was 7/60 (11.7) %.

**Q.** What about the “Proportion of Patients with DAS-defined Remission (DAS28 [CRP] < 2.6) at Both Months 12 and 18” value (patients with early RA [2]; post hoc subgroup: baseline Synovitis >Median (4.5)) of the same compound?
**A.** The value was 3/56 (5.4) %.

**Q.** And the “Proportion of Patients with DAS-defined Remission (DAS28 [CRP] < 2.6) at Both Months 12 and 18” value (patients with early RA [2]; post hoc subgroup: baseline Synovitis >Q1 (2)-Q2 (4.5))?
**A.** Its value is 1/23 (4.3) %.

**Q.** What about the “Proportion of Patients with DAS-defined Remission (DAS28 [CRP] < 2.6) at Both Months 12 and 18” value (patients with early RA [2]; post hoc subgroup: baseline Synovitis >Q2 (4.5)-Q3 (8.5)) of the same compound?
**A.** Its value is 1/30 (3.3) %.

**Q.** And the “Proportion of Patients with DAS-defined Remission (DAS28 [CRP] < 2.6) at Both Months 12 and 18” value (patients with early RA [2]; post hoc subgroup: baseline Synovitis >Q3 (8.5))?
**A.** Its value is 2/26 (7.7) %.

**Q.** What about the “Proportion of Patients with DAS-defined Remission (DAS28 [CRP] < 2.6) at Both Months 12 and 18” value (patients with early RA [2]; post hoc subgroup: baseline Synovitis Missing) of the same compound?
**A.** The value was 2/13 (15.4) %.

**Q.** And the “Proportion of Patients with DAS-defined Remission (DAS28 [CRP] < 2.6) at Both Months 12 and 18” value (patients with early RA [2]; post hoc subgroup: baseline Synovitis ≤Median (4.5))?
**A.** Its value is 4/47 (8.5) %.

**Q.** What about the “Proportion of Patients with DAS-defined Remission (DAS28 [CRP] < 2.6) at Both Months 12 and 18” value (patients with early RA [2]; post hoc subgroup: baseline Synovitis ≤Q1 (2)) of the same compound?
**A.** The value was 3/24 (12.5) %.

**Q.** What about the “Proportion of Patients with DAS-defined Remission (DAS28 [CRP] < 2.6) at Both Months 12 and 18” value (patients with early RA [2]; post hoc subgroup: symptom duration >6 Months) of the same compound?
**A.** The value was 2/39 (5.1) %.

**Q.** And the “Proportion of Patients with DAS-defined Remission (DAS28 [CRP] < 2.6) at Both Months 12 and 18” value (patients with early RA [2]; post hoc subgroup: symptom duration >Median (0.37 years))?
**A.** The value was 4/47 (8.5) %.

**Q.** And the “Proportion of Patients with DAS-defined Remission (DAS28 [CRP] < 2.6) at Both Months 12 and 18” value (patients with early RA [2]; post hoc subgroup: symptom duration ≤6 Months)?
**A.** Its value is 7/77 (9.1) %.

**Q.** What about the “Proportion of Patients with DAS-defined Remission (DAS28 [CRP] < 2.6) at Both Months 12 and 18” value (patients with early RA [2]; post hoc subgroup: symptom duration ≤Median (0.37 years)) of the same compound?
**A.** Its value is 5/69 (7.2) %.

**Q.** What about the “time with DAS28 (CRP) <2.6 during the treatment period (first value of 'x vs y')” value (patients with early RA [2]; [3]) of the same compound?
**A.** Its value is 5.8 months.

**Q.** What about the “time with DAS28 (CRP) <2.6 during the treatment period (second value of 'x vs y')” value (patients with early RA [2]; [3]) of the same compound?
**A.** Its value is 5.7 months.
